Measurements: patent publication US9006265B2, “Substituted fused pyrimidinones and dihydropyrimidinones” (Bayer Intellectual Property GmbH, priority 2010, dated 2015)

What was measured:
Details in all cases: efficacy = percentage reduction in intensity of damage, mean of three results
ZEAMX [1] = assay: Cold stress test on crop plants in greenhouse, spray application; assay type: in vivo, Zea mays
Experimental: Seeds of monocotyledonous and dicotyledonous crop plants were laid out in sandy loam in wood-fiber pots, covered with soil and cultivated in a greenhouse under good growth conditions. The test plants were treated at the early leaf stage (BBCH10-BBCH13). To ensure uniform water supply before commencement of stress, the potted plants were supplied with the maximum amount of water immediately beforehand by dam irrigation and, after application, transferred in plastic inserts in order to prevent subsequent, excessively rapid drying. The inventive compounds, formulated in the form of wettable powders (WP), wettable granules (WG), suspension concentrates (SC) or emulsion concentrates (EC), were sprayed onto the green parts of the plants as an aqueous suspension at an equivalent water application rate of 600 l/ha with addition of 0.2% wetting agent (agrotin). Substance application is followed immediately by stress treatment of the plants (cold or drought stress). For cold stress treatment, the plants were kept under the following controlled conditions: • “day”: 12 hours with illumination at 8° C. • “night”: 12 hours without illumination at 1° C. The duration of the respective stress phases was guided mainly by the state of the untreated (=treated with blank formulation without test compound), stressed control plants and thus varied from crop to crop. It was ended (by re-irrigating or transfer to a greenhouse with good growth conditions) as soon as irreversible damage was observed on the untreated, stressed control plants. In the case of dicotyledonous crops, for example oilseed rape and soybeans, the duration of the drought stress phase varied between 3 and 5 days, in the case of monocotyledonous crops, for example wheat, barley or corn, between 6 and 10 days. The duration of the cold stress phase varied between 12 and 14 days. The end of the stress phase was followed by an approx. 5-7-day recovery phase, during which the plants were once again kept under good growth conditions in a greenhouse. In order to rule out any influence of the effects observed by any fungicidal action of the test compounds, it was additionally ensured that the tests proceeded without fungal infection and without infection pressure. After the recovery phase had ended, the intensities of damage were rated in visual comparison to untreated, unstressed controls of the same age (in the case of drought stress) or the same growth stage (in the case of cold stress). The intensity of damage was first assessed as a percentage (100%=plants have died, 0%=like control plants). These values were then used to calculate the efficacy of the test compounds (=percentage reduction in the intensity of damage as a result of substance application) by the following formula: [formula] EF: efficacy (%) DVus: damage value of the untreated, stressed control DVts: damage value of the plants treated with test compound The tables A-1 and B-1 to B-4 below list mean values in each case from three results of the same test. Efficacies of selected compounds of the formula (I) under cold stress using the example of ZEAMX: […]

BRSNS = assay: Drought stress test on crop plants in greenhouse, spray application; assay type: in vivo, Brassica napes
Experimental: (§1) Seeds of monocotyledonous and dicotyledonous crop plants were laid out in sandy loam in wood-fiber pots, covered with soil and cultivated in a greenhouse under good growth conditions. The test plants were treated at the early leaf stage (BBCH10-BBCH13). To ensure uniform water supply before commencement of stress, the potted plants were supplied with the maximum amount of water immediately beforehand by dam irrigation and, after application, transferred in plastic inserts in order to prevent subsequent, excessively rapid drying. The inventive compounds, formulated in the form of wettable powders (WP), wettable granules (WG), suspension concentrates (SC) or emulsion concentrates (EC), were sprayed onto the green parts of the plants as an aqueous suspension at an equivalent water application rate of 600 l/ha with addition of 0.2% wetting agent (agrotin). Substance application is followed immediately by stress treatment of the plants (cold or drought stress). For cold stress treatment, the plants were kept under the following controlled conditions: • “day”: 12 hours with illumination at 8° C. • “night”: 12 hours without illumination at 1° C.
(§2) Drought stress was induced by gradual drying out under the following conditions: • “day”: 14 hours with illumination at 26° C. • “night”: 10 hours without illumination at 18° C.
(§3) The duration of the respective stress phases was guided mainly by the state of the untreated (=treated with blank formulation without test compound), stressed control plants and thus varied from crop to crop. It was ended (by re-irrigating or transfer to a greenhouse with good growth conditions) as soon as irreversible damage was observed on the untreated, stressed control plants. In the case of dicotyledonous crops, for example oilseed rape and soybeans, the duration of the drought stress phase varied between 3 and 5 days, in the case of monocotyledonous crops, for example wheat, barley or corn, between 6 and 10 days. The duration of the cold stress phase varied between 12 and 14 days.
(§4) The end of the stress phase was followed by an approx. 5-7-day recovery phase, during which the plants were once again kept under good growth conditions in a greenhouse. In order to rule out any influence of the effects observed by any fungicidal action of the test compounds, it was additionally ensured that the tests proceeded without fungal infection and without infection pressure.
(§5) After the recovery phase had ended, the intensities of damage were rated in visual comparison to untreated, unstressed controls of the same age (in the case of drought stress) or the same growth stage (in the case of cold stress). The intensity of damage was first assessed as a percentage (100%=plants have died, 0%=like control plants). These values were then used to calculate the efficacy of the test compounds (=percentage reduction in the intensity of damage as a result of substance application) by the following formula:
(§6) [formula] EF: efficacy (%) DVus: damage value of the untreated, stressed control DVts: damage value of the plants treated with test compound
(§7) The tables A-1 and B-1 to B-4 below list mean values in each case from three results of the same test.
(§8) Efficacies of selected compounds of the formula (I) under drought stress using the examples of HORVS, BRSNS, ZEAMX und TRZAS: […]

ZEAMX [2] = assay: as above; assay type: in vivo, Zea mays
Experimental: as §1, §2, §3, §4, §5, §6, §7, §8

TRZAS = assay: as above; assay type: in vivo, Triticum aestivum
Experimental: as §1, §2, §3, §4, §5, §6, §7, §8

## CN1c2ccccc2C(=O)NC1c1cnn(C)c1 (stereo not shown) [I.4-63]
ZEAMX [1]; dosage 50 g/ha
  EF (ZEAMX): >5%

## Cc1nn2c([nH]c(=O)c3ccccc32)c1-c1ccccc1 [I.3-1]
BRSNS; dosage 250 g/ha
  EF (BRSNS): >5%

## Cc1ccc(C2NC(=O)c3cccc(Cl)c3N2)c(Cl)c1 (stereo not shown) [I.4-295]
ZEAMX [2]; dosage 250 g/ha
  EF (ZEAMX): >5%

## CCN(CC)CCN1C(=O)c2cccc(OC)c2NC1c1ccnn1C (stereo not shown) [I.4-330]
TRZAS; dosage 250 g/ha
  EF (TRZAS): >5%
ZEAMX [2]; dosage 250 g/ha
  EF (ZEAMX): >5%

## O=C1NC(c2ccoc2)Nc2cccc(Cl)c21 (stereo not shown) [I.4-232]
BRSNS; dosage 250 g/ha
  EF (BRSNS): >5%
TRZAS; dosage 250 g/ha
  EF (TRZAS): >5%

## Cc1ccc(-c2nc3ccccc3c(=O)[nH]2)o1 [I.1-44]
ZEAMX [2]; dosage 500 g/ha
  EF (ZEAMX): >5%

## O=c1[nH]c2c(-c3ccc(Cl)cc3)c(C(F)(F)F)nn2c2ccccc12 [I.3-17, 3-(4-Chlorophenyl)-2-(trifluoromethyl)pyrazolo[1,5-a]quinazolin-5(4H)-one]
BRSNS; dosage 250 g/ha
  EF (BRSNS): >5%
ZEAMX [2]; dosage 250 g/ha
  EF (ZEAMX): >5%

## Cc1cccc2c(=O)[nH]c(CCc3ccccc3)nc12 [I.1-145]
BRSNS; dosage 50 g/ha
  EF (BRSNS): >5%

## Cc1cccc2c(=O)[nH]c(-c3ccc(Br)cc3)nc12 [I.1-378]
TRZAS; dosage 250 g/ha
  EF (TRZAS): >5%

## COc1cccc2c(=O)[nH]c(-c3ccc([N+](=O)[O-])cc3)nc12 [I.1-36]
ZEAMX [1]; dosage 25 g/ha
  EF (ZEAMX): >5%

## O=C1NC(c2ccoc2)Nc2ccccc21 (stereo not shown) [I.4-51]
ZEAMX [1]; dosage 250 g/ha
  EF (ZEAMX): >5%

## Cc1cccc2c(=O)[nH]c(/C=C/c3cccnc3)nc12 [I.1-338]
BRSNS; dosage 100 g/ha
  EF (BRSNS): >5%
TRZAS; dosage 100 g/ha
  EF (TRZAS): >5%
ZEAMX [2]; dosage 100 g/ha
  EF (ZEAMX): >5%

## CC(C)c1nc2ccccc2c(=O)[nH]1 [I.1-15]
ZEAMX [2]; dosage 500 g/ha
  EF (ZEAMX): >5%

## Cc1cc(Cl)cc2c(=O)[nH]c(-c3[nH]ncc3Br)nc12 [I.1-165]
BRSNS; dosage 250 g/ha
  EF (BRSNS): >5%
TRZAS; dosage 250 g/ha
  EF (TRZAS): >5%
ZEAMX [2]; dosage 250 g/ha
  EF (ZEAMX): >5%

## Cc1cccc2c1NC(c1ccoc1)NC2=O (stereo not shown) [I.4-84]
ZEAMX [2]; dosage 250 g/ha
  EF (ZEAMX): >5%

## O=C1NC(c2ccsc2)Nc2c(Cl)cccc21 (stereo not shown) [I.4-181]
BRSNS; dosage 250 g/ha
  EF (BRSNS): >5%
ZEAMX [2]; dosage 250 g/ha
  EF (ZEAMX): >5%

## COc1cccc2c(=O)[nH]c(C3CCCC3)nc12 [I.1-157]
ZEAMX [2]; dosage 500 g/ha
  EF (ZEAMX): >5%

## O=C1NC(c2ccc(Cl)cc2)Nc2cccc(F)c21 (stereo not shown) [I.4-165]
ZEAMX [2]; dosage 250 g/ha
  EF (ZEAMX): >5%

## O=C1NC(CCc2ccccc2)Nc2cccc(F)c21 (stereo not shown) [I.4-184]
ZEAMX [1]; dosage 250 g/ha
  EF (ZEAMX): >5%

## O=c1[nH]c(-c2ccc(Br)cc2)nc2c(Cl)cccc12 [I.1-204]
ZEAMX [1]; dosage 25 g/ha
  EF (ZEAMX): >5%

## Cc1cccc2c1NC(c1ccc(C(F)(F)F)cc1)NC2=O (stereo not shown) [I.4-21]
ZEAMX [2]; dosage 1000 g/ha
  EF (ZEAMX): >5%

## O=C1NC(c2ccc(F)cc2F)Nc2c(Cl)cccc21 (stereo not shown) [I.4-175]
ZEAMX [2]; dosage 250 g/ha
  EF (ZEAMX): >5%

## O=C1NC(c2ccsc2)Nc2cccc(F)c21 (stereo not shown) [I.4-177]
ZEAMX [2]; dosage 250 g/ha
  EF (ZEAMX): >5%

## Cc1ccc2c(=O)[nH]c(-c3ccc(Cl)cc3)nc2c1 [I.1-318]
ZEAMX [2]; dosage 250 g/ha
  EF (ZEAMX): >5%

## O=c1[nH]c(C2CCCC2)nc2c(O)cccc12 [I.1-148]
ZEAMX [2]; dosage 500 g/ha
  EF (ZEAMX): >5%

## COc1cc2nc(/C=C/c3cc(OC)c(O)c(OC)c3)[nH]c(=O)c2cc1OC [I.1-429]
ZEAMX [1]; dosage 250 g/ha
  EF (ZEAMX): >5%

## CN1c2ccccc2C(=O)NC1c1ccoc1 (stereo not shown) [I.4-85]
ZEAMX [2]; dosage 250 g/ha
  EF (ZEAMX): >5%

## O=c1[nH]c(-c2ccc(C#Cc3ccccc3F)o2)nc2cc(Cl)ccc12 [I.1-181]
BRSNS; dosage 250 g/ha
  EF (BRSNS): >5%

## COc1cc(/C=C/C2NC(=O)c3ccccc3N2C)cc(OC)c1O (stereo not shown) [I.4-90]
BRSNS; dosage 250 g/ha
  EF (BRSNS): >5%

## COc1cccc2c1NC(CCc1ccccc1)NC2=O (stereo not shown) [I.4-16]
BRSNS; dosage 250 g/ha
  EF (BRSNS): >5%

## COc1cc2nc(-c3cccc(C(F)(F)F)c3)[nH]c(=O)c2cc1OC [I.1-440]
ZEAMX [1]; dosage 25 g/ha
  EF (ZEAMX): >5%

## CCn1ccc(C2NC(=O)c3cccc(OC)c3N2)n1 (stereo not shown) [I.4-97]
TRZAS; dosage 250 g/ha
  EF (TRZAS): >5%
ZEAMX [2]; dosage 250 g/ha
  EF (ZEAMX): >5%

## O=C1NC(c2ccc(Br)cc2F)Nc2cccc(F)c21 (stereo not shown) [I.4-227]
TRZAS; dosage 250 g/ha
  EF (TRZAS): >5%

## Cc1ccc(C2NC(=O)c3c(C)cccc3N2)cc1 (stereo not shown) [I.4-193]
TRZAS; dosage 250 g/ha
  EF (TRZAS): >5%

## CCn1nccc1C1NC(=O)c2cccc(C)c2N1 (stereo not shown) [I.4-115]
BRSNS; dosage 250 g/ha
  EF (BRSNS): >5%
TRZAS; dosage 250 g/ha
  EF (TRZAS): >5%

## CCN(CC)CCN1C(=O)c2cccc(OC)c2NC1c1ccc(C(F)(F)F)cc1Cl (stereo not shown) [I.4-324]
ZEAMX [2]; dosage 250 g/ha
  EF (ZEAMX): >5%

## Cc1cc(-c2nc3ccccc3c(=O)[nH]2)oc1C [I.1-45]
ZEAMX [2]; dosage 500 g/ha
  EF (ZEAMX): >5%

## COc1cccc2c1NC(/C=C/c1ccccc1)NC2=O (stereo not shown) [I.4-75, 2R,S-8-methoxy-2-[(E)-2-phenylethenyl]-2,3-dihydroquinazolin-4(1H)-one]
BRSNS; dosage 250 g/ha
  EF (BRSNS): >5%
TRZAS; dosage 250 g/ha
  EF (TRZAS): >5%

## Cc1nc[nH]c1-c1nc2cc(Cl)ccc2c(=O)[nH]1 [I.1-139]
ZEAMX [2]; dosage 500 g/ha
  EF (ZEAMX): >5%

## O=c1[nH]c(-c2nc[nH]n2)nc2ccccc12 [I.1-30]
ZEAMX [2]; dosage 500 g/ha
  EF (ZEAMX): >5%

## O=c1[nH]c(COc2ccccc2)nc2cc(Cl)ccc12 [I.1-303]
ZEAMX [2]; dosage 250 g/ha
  EF (ZEAMX): >5%

## COc1cc2nc(-c3ccoc3)[nH]c(=O)c2cc1OC [I.1-424]
ZEAMX [2]; dosage 250 g/ha
  EF (ZEAMX): >5%

## CCOC(=O)c1c(C#N)nn2c1[nH]c(=O)c1ccccc12 [I.3-32]
ZEAMX [2]; dosage 250 g/ha
  EF (ZEAMX): >5%

## O=c1[nH]c(-c2cc(Br)cs2)nc2c(Cl)cccc12 [I.1-201]
ZEAMX [2]; dosage 250 g/ha
  EF (ZEAMX): >5%

## CCCCCc1nc2c(OC)cccc2c(=O)[nH]1 [I.1-153]
BRSNS; dosage 500 g/ha
  EF (BRSNS): >5%
ZEAMX [2]; dosage 500 g/ha
  EF (ZEAMX): >5%

## Cc1cccc2c1C(=O)NC(c1ccsc1)N2 (stereo not shown) [I.4-180]
ZEAMX [2]; dosage 250 g/ha
  EF (ZEAMX): >5%

## Cn1cccc1-c1nc2cc(Cl)ccc2c(=O)[nH]1 [I.1-197]
TRZAS; dosage 250 g/ha
  EF (TRZAS): >5%
ZEAMX [2]; dosage 250 g/ha
  EF (ZEAMX): >5%

## O=c1[nH]c(CCc2ccccc2)nc2c(Cl)cccc12 [I.1-172]
ZEAMX [1]; dosage 25 g/ha
  EF (ZEAMX): >5%
